From PMC11682962, “The histamine analogue clobenpropit modulates IRF7 phosphorylation and interferon production by targeting CXCR4 in systemic lupus erythematosus models” (Frontiers in Immunology, 2024)
pKi: −log10 of the molar value.

Target: T1, CXCR4 (Homo sapiens, UniProt P61073)
T1 construct: Nanoluc-CXCR4
Assay: NanoBRET competition binding against CXCL12-AF647 in transfected HEK293T cells; anti-IFN effect lost with CXCR4 siRNA
Assay type: cell-based

T1 sequence (P61073 whole entry): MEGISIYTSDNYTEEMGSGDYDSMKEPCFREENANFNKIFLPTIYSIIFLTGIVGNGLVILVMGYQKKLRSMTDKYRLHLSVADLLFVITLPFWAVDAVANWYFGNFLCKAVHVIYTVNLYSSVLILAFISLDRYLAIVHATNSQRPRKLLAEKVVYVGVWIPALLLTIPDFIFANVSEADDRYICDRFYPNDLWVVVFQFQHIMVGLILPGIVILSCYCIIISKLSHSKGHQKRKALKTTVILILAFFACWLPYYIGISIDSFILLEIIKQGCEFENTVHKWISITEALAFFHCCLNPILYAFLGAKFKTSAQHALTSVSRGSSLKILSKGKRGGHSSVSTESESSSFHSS

NC(=NCc1ccc(Cl)cc1)SCCCc1cnc[nH]1 [CB, clobenpropit]
pKi: 4.73
